Experimental data from ChEMBL document CHEMBL1136470, “Rational design, synthesis and structure-activity relationships of a cyclic succinate series of TNF-alpha converting enzyme inhibitors. Part 1: lead identification” (Bioorg Med Chem Lett, 2003).

Legend:
Homo sapiens = organism: Homo sapiens; assay: Compound tested for the in vitro inhibition of TNF-alpha production was determined by using LPS-stimulated human whole blood assay (WBA); assay type: functional
[1] = target: Disintegrin and metalloproteinase domain-containing protein 17 (Sus scrofa, UniProt O77636); assay: Inhibition of porcine TACE
[2] = Inhibition of aggrecanase
[3] = target: Matrix metalloproteinase-9 (Homo sapiens, UniProt P14780); assay: Inhibition of matrix metalloprotease-9 (MMP-9)
Interstitial collagenase = target: T1, Interstitial collagenase (Homo sapiens, UniProt P03956); assay: Inhibition of matrix metalloprotease-1 (MMP-1)
T1 sequence (P03956 whole entry): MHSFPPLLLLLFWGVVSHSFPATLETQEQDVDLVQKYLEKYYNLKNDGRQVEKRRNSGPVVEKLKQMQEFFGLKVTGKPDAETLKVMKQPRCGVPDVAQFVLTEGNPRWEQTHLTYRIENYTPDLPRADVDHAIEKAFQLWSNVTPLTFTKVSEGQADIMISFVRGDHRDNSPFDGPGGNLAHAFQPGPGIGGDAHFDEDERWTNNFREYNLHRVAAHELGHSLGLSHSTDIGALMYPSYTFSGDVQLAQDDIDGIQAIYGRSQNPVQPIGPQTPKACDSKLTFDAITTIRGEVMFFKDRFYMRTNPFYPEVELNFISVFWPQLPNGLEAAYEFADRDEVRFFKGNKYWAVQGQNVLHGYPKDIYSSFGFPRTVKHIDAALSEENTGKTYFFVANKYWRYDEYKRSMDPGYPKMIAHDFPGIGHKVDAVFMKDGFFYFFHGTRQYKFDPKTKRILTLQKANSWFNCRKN

[4] = target: 72 kDa type IV collagenase (Homo sapiens, UniProt P08253); assay: Inhibition of matrix metalloprotease-2 (MMP-2)
Chain of 72 kDa type IV collagenase (P08253 whole entry): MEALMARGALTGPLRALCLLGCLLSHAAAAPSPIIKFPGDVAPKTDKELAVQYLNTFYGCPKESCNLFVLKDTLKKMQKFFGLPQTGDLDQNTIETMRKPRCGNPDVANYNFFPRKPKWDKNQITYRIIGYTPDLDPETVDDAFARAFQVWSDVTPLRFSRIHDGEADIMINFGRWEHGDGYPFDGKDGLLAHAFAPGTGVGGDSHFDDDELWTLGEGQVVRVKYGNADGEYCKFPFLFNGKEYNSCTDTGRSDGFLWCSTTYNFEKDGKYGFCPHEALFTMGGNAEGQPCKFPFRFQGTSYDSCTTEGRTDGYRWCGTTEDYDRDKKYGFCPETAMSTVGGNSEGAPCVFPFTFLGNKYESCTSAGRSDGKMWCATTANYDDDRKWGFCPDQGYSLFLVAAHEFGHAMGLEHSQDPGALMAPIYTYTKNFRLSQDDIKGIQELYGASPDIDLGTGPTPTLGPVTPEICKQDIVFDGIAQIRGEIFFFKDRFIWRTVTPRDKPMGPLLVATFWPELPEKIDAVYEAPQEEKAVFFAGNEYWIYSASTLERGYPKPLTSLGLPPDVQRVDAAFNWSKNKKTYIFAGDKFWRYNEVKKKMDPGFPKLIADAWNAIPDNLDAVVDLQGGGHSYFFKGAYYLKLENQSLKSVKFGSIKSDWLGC

Chain of Disintegrin and metalloproteinase domain-containing protein 17 (O77636 whole entry, the tested form may be a part): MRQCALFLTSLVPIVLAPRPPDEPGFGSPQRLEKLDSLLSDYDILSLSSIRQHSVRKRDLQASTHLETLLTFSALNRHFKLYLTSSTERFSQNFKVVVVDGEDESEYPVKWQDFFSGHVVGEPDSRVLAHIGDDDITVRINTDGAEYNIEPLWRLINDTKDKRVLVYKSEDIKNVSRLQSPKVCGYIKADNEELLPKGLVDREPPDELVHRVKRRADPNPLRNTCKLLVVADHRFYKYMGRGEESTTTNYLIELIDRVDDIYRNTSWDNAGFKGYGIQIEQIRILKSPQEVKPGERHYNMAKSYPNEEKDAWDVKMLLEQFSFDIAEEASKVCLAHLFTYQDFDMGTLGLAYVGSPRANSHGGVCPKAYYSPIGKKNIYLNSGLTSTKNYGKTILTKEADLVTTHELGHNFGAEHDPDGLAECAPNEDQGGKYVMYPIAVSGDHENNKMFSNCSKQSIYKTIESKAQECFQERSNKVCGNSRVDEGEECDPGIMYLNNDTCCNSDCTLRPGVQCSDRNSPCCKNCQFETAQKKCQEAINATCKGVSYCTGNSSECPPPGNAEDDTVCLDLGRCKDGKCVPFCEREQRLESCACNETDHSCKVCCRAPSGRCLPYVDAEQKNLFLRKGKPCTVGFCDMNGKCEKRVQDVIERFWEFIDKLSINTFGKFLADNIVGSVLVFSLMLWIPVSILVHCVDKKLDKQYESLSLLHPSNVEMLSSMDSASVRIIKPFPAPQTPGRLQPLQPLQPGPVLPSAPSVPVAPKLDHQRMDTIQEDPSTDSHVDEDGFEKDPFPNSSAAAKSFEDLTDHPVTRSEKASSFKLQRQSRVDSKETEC
Chain of Matrix metalloproteinase-9 (P14780 whole entry): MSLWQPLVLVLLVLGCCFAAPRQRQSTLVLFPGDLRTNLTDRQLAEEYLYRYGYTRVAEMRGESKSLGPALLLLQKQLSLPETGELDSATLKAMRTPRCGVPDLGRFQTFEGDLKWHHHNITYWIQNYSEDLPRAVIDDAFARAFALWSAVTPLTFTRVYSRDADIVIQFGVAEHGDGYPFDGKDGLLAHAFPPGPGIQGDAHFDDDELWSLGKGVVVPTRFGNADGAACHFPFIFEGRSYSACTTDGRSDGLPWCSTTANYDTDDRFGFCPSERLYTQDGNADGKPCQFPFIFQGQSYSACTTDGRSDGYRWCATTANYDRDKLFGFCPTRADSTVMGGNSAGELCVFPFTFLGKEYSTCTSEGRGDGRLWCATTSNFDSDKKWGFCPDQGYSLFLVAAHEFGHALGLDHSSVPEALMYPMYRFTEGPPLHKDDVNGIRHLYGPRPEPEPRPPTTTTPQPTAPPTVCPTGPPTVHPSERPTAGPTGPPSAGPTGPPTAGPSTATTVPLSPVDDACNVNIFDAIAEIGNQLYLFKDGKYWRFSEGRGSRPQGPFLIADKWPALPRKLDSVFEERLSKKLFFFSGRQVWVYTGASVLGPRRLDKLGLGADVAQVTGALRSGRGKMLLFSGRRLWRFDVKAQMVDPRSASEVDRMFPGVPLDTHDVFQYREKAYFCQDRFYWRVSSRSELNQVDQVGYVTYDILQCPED

In the case of `O=C(NO)[C@H]1CCC[C@@H]1C(=O)Nc1ccc(COc2ccnc3ccccc23)cc1`, the IC50 (Homo sapiens) is reported as over 50 µM, the IC50 [1] is reported as 0.039 µM and the Ki [2] is reported as over 0.5 µM. It also gave a Ki [3] of over 2.13 µM, a Ki (Interstitial collagenase) of over 4.95 µM and a Ki [4] of over 3.33 µM.

`O=C(NO)[C@H]1CCCC[C@@H]1C(=O)Nc1ccc(COc2cccc3ncccc23)cc1` showed an IC50 (Homo sapiens) of over 50 µM, an IC50 [1] of 0.045 µM and a Ki [2] of over 0.5 µM. It also gave a Ki [3] of 1.36 µM, a Ki (Interstitial collagenase) of over 4.95 µM and a Ki [4] of 0.585 µM.

With `O=C(NO)[C@H]1CCC[C@@H]1C(=O)Nc1ccc(OCc2ccncc2)cc1` the IC50 (Homo sapiens) was over 50 µM, the IC50 [1] was 0.62 µM and the Ki [2] was over 0.5 µM. For the same molecule, the Ki [3] was over 2.13 µM, the Ki (Interstitial collagenase) was over 4.95 µM and the Ki [4] was over 3.33 µM.

For `O=C(NO)[C@H]1CCC[C@@H]1C(=O)Nc1ccc(OCc2ccccc2)cc1`, the IC50 (Homo sapiens) was over 50 µM, the IC50 [1] was 0.11 µM and the Ki [2] was over 0.5 µM. For the same molecule, the Ki [3] was over 2.13 µM, the Ki (Interstitial collagenase) was over 4.95 µM and the Ki [4] was over 3.33 µM.

Molecule `O=C(NO)[C@H]1CCCC[C@@H]1C(=O)Nc1ccc(C#Cc2ccc3ncccc3c2)cc1` has an IC50 (Homo sapiens) of over 50 µM, an IC50 [1] of 7.24 µM and a Ki [2] of over 0.5 µM. It also gave a Ki [3] of over 2.13 µM, a Ki (Interstitial collagenase) of over 4.95 µM and a Ki [4] of over 3.33 µM.

Work on `O=C(NO)[C@H]1CCC[C@@H]1C(=O)Nc1ccc(OCc2cc(Cl)cc(Cl)c2)cc1` yielded an IC50 (Homo sapiens) of over 50 µM, an IC50 [1] of 0.053 µM and a Ki [2] of over 0.5 µM. It also gave a Ki [3] of over 2.13 µM, a Ki (Interstitial collagenase) of over 4.95 µM and a Ki [4] of over 3.33 µM.

In the case of `O=C1NCCCC[C@@H](C(=O)NCC(=O)N2CCOCC2)NC(=O)[C@H](Cc2ccc(-c3ccccc3C(F)(F)F)cc2)[C@@H](C(=O)NO)CCCO1`, the IC50 (Homo sapiens) is reported as over 0.07 µM, the Ki [3] is reported as over 2 µM and the Ki (Interstitial collagenase) is reported as over 2 µM. For the same molecule, the Ki [4] was over 2 µM.

For `O=C(NO)[C@H]1CCCC[C@@H]1C(=O)Nc1ccc(OCc2ccccc2)cc1`, the IC50 (Homo sapiens) was over 50 µM, the IC50 [1] was 0.089 µM and the Ki [2] was over 0.5 µM. It also gave a Ki [3] of over 2.13 µM, a Ki (Interstitial collagenase) of over 4.95 µM and a Ki [4] of over 3.33 µM.

With `O=C(NO)[C@H]1CCCC[C@@H]1C(=O)Nc1ccc(COc2ccnc3ccccc23)cc1` the IC50 (Homo sapiens) was over 50 µM, the IC50 [1] was 0.008 µM and the Ki [2] was over 0.5 µM. The Ki [3] was over 2.13 µM, the Ki (Interstitial collagenase) was over 4.95 µM and the Ki [4] was over 3.33 µM.

Molecule `O=C(NO)[C@H]1CCC[C@@H]1C(=O)Nc1ccc(Cc2ccncc2)cc1` has an IC50 (Homo sapiens) of over 50 µM, an IC50 [1] of 0.21 µM and a Ki [2] of over 0.5 µM. It also gave a Ki [3] of over 2.13 µM, a Ki (Interstitial collagenase) of over 4.95 µM and a Ki [4] of 0.675 µM.

Molecule `O=C(NO)[C@H]1CCCC[C@@H]1C(=O)Nc1ccc(COc2ccc3ncccc3c2)cc1` has an IC50 (Homo sapiens) of over 50 µM, an IC50 [1] of 0.056 µM and a Ki [2] of over 0.5 µM. The Ki [3] was 0.876 µM, the Ki (Interstitial collagenase) was over 4.95 µM and the Ki [4] was 1.08 µM.
